Source: patent US5491172A, “N-acyl sulfamic acid esters (or thioesters), N-acyl sulfonamides, and N-sulfonyl carbamic acid esters (or thioesters) as hypercholesterolemic agents” (Warner-Lambert Company, priority 1994, dated 1996)

Tests used:
[1] = biological target: acyl-CoA:cholesterol acyltransferase (ACAT); test: in vitro ACAT inhibition (LAI): radiolabeled cholesterol oleate formed from radiolabeled oleic acid in rat liver microsomes; type: biochemical; conditions: concentration required to inhibit enzyme activity by 50%
Procedure: The ability of representative compounds of the present invention to inhibit ACAT was measured using an in vitro test more fully described in Field FJ, Salone RG, Biochemica et Biophysica, 1982;712:557-570. The test assesses the ability of a test compound to inhibit the acylation of cholesterol by oleic acid by measuring the amount of radiolabeled cholesterol oleate formed from radiolabeled oleic acid in a tissue preparation containing rat liver microsomes.

[2] = in vivo screen APCC: blood cholesterol in rats fed overnight a high fat, high cholesterol (PCC) diet; conditions: male Sprague-Dawley rats, dosed at 4 PM, PCC diet with 0.5% cholic acid overnight, blood sampled 8 AM, dose not given
From the text: In one in vivo screen designated APCC, male Sprague-Dawley rats (200 to 225 g) were randomly divided into treatment groups and dosed at 4 PM with either vehicle (CMC/Tween) or suspensions of compounds in vehicle. The normal chow diet was then replaced with a high fat, high cholesterol diet (designated PCC) containing 0.5% cholic acid. The rats consumed this diet ad libitum during the night and were sacrificed at 8 AM to obtain blood samples for cholesterol analysis using standard procedures. Statistical differences between mean cholesterol values for the same vehicle were determined using analysis of variance followed by Fisher's least significant test.

| Compound | IC50 [1] | % Change (mg/dl) in cholesterol [2] |
| --- | --- | --- |
| CC(C)c1cc(C(C)C)c(CC(=O)NS(=O)(=O)Oc2c(C(C)C)cccc2C(C)C)c(C(C)C)c1 [Example 5, Sulfamic acid[[2,4,6-tris(1-methylethyl)phenyl]acetyl]-2,6-bis(1-methylethyl)phenylester] | 12 µM | -73% |
| CC(C)c1cccc(C(C)C)c1OS(=O)(=O)NC(=O)Cc1c(Cl)cccc1Cl [Example 14, sulfamic acid[2,6-dichlorophenyl(acetyl)]-2,6-bis(1-methylethyl)phenyl ester] | 33 µM | -12% |
| CC(C)c1cc(C(C)C)c(C(F)C(=O)NS(=O)(=O)Oc2c(C(C)C)cccc2C(C)C)c(C(C)C)c1 (stereo not shown) [Example 44, sulfamic acid[fluoro[2,4,6-tris(1-methylethyl)phenyl]acetyl]-2,6-bis(1-methylethyl)phenyl ester] | 9.4 µM | -74% |
| CC(C)c1cccc(C(C)C)c1OS(=O)(=O)NC(=O)C1c2ccccc2Oc2ccccc21 [Example 36, sulfamic acid[(9H-xanthen-9-yl)carbonyl]-2,6-bis(1-methylethyl)phenyl ester] | 22 µM | -6% |
| CC(C)c1cccc(C(C)C)c1OS(=O)(=O)NC(=O)C(c1ccccc1)c1ccccc1 [Example 27, sulfamic acid(diphenylacetyl)-2,6-bis(1-methylethyl)phenyl ester] | 12 µM | -72% |
| CC(C)c1cccc(C(C)C)c1OCC(=O)NS(=O)(=O)Oc1c(C(C)C)cccc1C(C)C [Example 47, sulfamic acid[[2,6-bis(1-methylethyl)phenoxy]acetyl]-2,6-bis(1-methylethyl)phenyl ester] | 38 µM | -46% |
| CC(=O)OC(C(=O)NS(=O)(=O)Oc1c(C(C)C)cccc1C(C)C)c1c(C(C)C)cc(C(C)C)cc1C(C)C (stereo not shown) [Example 42, sulfamic acid[(acetyloxy)[2,4,6-tris(1-methylethyl)phenyl]acetyl]-2,6-bis(1-methylethyl)phenyl ester] | 7 µM | -25% |
| COc1ccccc1CC(=O)NS(=O)(=O)Oc1c(C(C)C)cccc1C(C)C [Example 21, sulfamic acid[2-methoxyphenyl(acetyl)]-2,6-bis(1-methylethyl)phenyl ester] | 55 µM | -16% |
| Cc1cc(C)c(CC(=O)NS(=O)(=O)Oc2c(C(C)C)cccc2C(C)C)c(C)c1 [Example 18, sulfamic acid[2,4,6-trimethylphenyl(acetyl)]-2,6-bis(1-methylethyl)phenyl ester] | 22 µM | -47% |
| CC(C)c1cc(C(C)C)c(OS(=O)(=O)NC(=O)Cc2c(C(C)C)cccc2C(C)C)c(C(C)C)c1 [Example 3, sulfamic acid[[2,6-bis(1-methylethyl)phenyl]acetyl]-2,4,6-tris(1-methylethyl)phenylester] | 11 µM | -79% |
| CC(C)c1cccc(C(C)C)c1OS(=O)(=O)NC(=O)Cc1cccs1 [Example 19, sulfamic acid[2-thiophenyl(acetyl)]-2,6-bis(1-methylethyl)phenyl ester] | > 50 µM | -20% |
| CCC(C)C(C(=O)NS(=O)(=O)Oc1c(C(C)C)cccc1C(C)C)c1ccccc1 (stereo not shown) [Example 31, sulfamic acid(3-methyl-1-oxo-2-phenylpentyl)-2,6-bis(1-methylethyl)phenyl ester] | 3.3 µM | -30% |
| CC(C)c1cc(C(C)C)c(OCC(=O)NS(=O)(=O)Oc2c(C(C)C)cccc2C(C)C)c(C(C)C)c1 [Example 46, sulfamic acid[[2,4,6-tris(1-methylethyl)phenoxy]acetyl]-2,6-bis(1-methylethyl)phenyl ester] | 34 µM | -57% |
| CC(C)c1cccc(C(C)C)c1OS(=O)(=O)NC(=O)C(C)(c1ccccc1)c1ccccc1 [Example 34, sulfamic acid(1-oxo-2,2-diphenylpropyl)-2,6-bis(1-methylethyl)phenyl ester] | 7.7 µM | -67% |
